Results from the supplement of paper PMC10307832.

Key:
Assay in all cases: relative viability (nuclei count vs DMSO), 5 days (fraction); higher = more cells survive
Idelalisib + Alpelisib = compound: CC[C@H](Nc1ncnc2[nH]cnc12)c1nc2cccc(F)c2c(=O)n1-c1ccccc1 [Idelalisib] + Cc1nc(NC(=O)N2CCC[C@H]2C(N)=O)sc1-c1ccnc(C(C)(C)C(F)(F)F)c1 [Alpelisib] (partner 2 µM)
How it was run: (§1)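 Lung cancer cell lines were pin-tool dosed in 1536-well plates on the day after seeding, with either a lone drug or a fixed anchor-drug dose plus five library-drug doses (not always all listed) in √10 steps. Nuclei were counted on 4× images after 5 days. Relative viability is the ratio of treated-well to vehicle-well nuclei counts, with each value a median of duplicate plates.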

Pemetrexed + Trametinib = compound: Nc1nc2[nH]cc(CCc3ccc(C(=O)N[C@@H](CCC(=O)O)C(=O)O)cc3)c2c(=O)[nH]1 [Pemetrexed] + CC(=O)Nc1cccc(-n2c(=O)n(C3CC3)c(=O)c3c(Nc4ccc(I)cc4F)n(C)c(=O)c(C)c32)c1 [Trametinib] (partner 0.02 µM)
How it was run: as §1

Idelalisib + Pictilisib = compound: CC[C@H](Nc1ncnc2[nH]cnc12)c1nc2cccc(F)c2c(=O)n1-c1ccccc1 [Idelalisib] + CS(=O)(=O)N1CCN(Cc2cc3nc(-c4cccc5[nH]ncc45)nc(N4CCOCC4)c3s2)CC1 [Pictilisib] (partner 1 µM)
How it was run: as §1

Idelalisib + Tozasertib = compound: CC[C@H](Nc1ncnc2[nH]cnc12)c1nc2cccc(F)c2c(=O)n1-c1ccccc1 [Idelalisib] + Cc1cc(Nc2cc(N3CCN(C)CC3)nc(Sc3ccc(NC(=O)C4CC4)cc3)n2)n[nH]1 [Tozasertib] (partner 0.1 µM)
How it was run: as §1

Cell Line | relative viability (Idelalisib + Alpelisib; first compound 0.04 µM) | relative viability (Idelalisib + Alpelisib; first compound 0.1265 µM) | relative viability (Idelalisib + Alpelisib; first compound 0.4 µM) | relative viability (Idelalisib + Alpelisib; first compound 1.265 µM) | relative viability (Idelalisib + Alpelisib; first compound 4 µM) | relative viability (Pemetrexed + Trametinib; first compound 0.002 µM) | relative viability (Pemetrexed + Trametinib; first compound 0.006325 µM) | relative viability (Pemetrexed + Trametinib; first compound 0.02 µM) | relative viability (Pemetrexed + Trametinib; first compound 0.06325 µM) | relative viability (Pemetrexed + Trametinib; first compound 0.2 µM) | relative viability (Idelalisib + Pictilisib; first compound 0.04 µM) | relative viability (Idelalisib + Pictilisib; first compound 0.1265 µM) | relative viability (Idelalisib + Pictilisib; first compound 0.4 µM) | relative viability (Idelalisib + Pictilisib; first compound 1.265 µM) | relative viability (Idelalisib + Pictilisib; first compound 4 µM) | relative viability (Idelalisib + Tozasertib; first compound 0.04 µM) | relative viability (Idelalisib + Tozasertib; first compound 0.1265 µM) | relative viability (Idelalisib + Tozasertib; first compound 0.4 µM) | relative viability (Idelalisib + Tozasertib; first compound 1.265 µM) | relative viability (Idelalisib + Tozasertib; first compound 4 µM)
201T | 0.974 | 0.987 | 0.937 | 0.963 | 0.872 | 0.745 | 0.713 | 0.706 | 0.735 | 0.724 | 0.686 | 0.712 | 0.59 | 0.736 | 0.661 | 1.07 | 1.01 | 0.785 | 0.947 | 0.667
A549 | 0.873 | 0.812 | 0.505 | 0.51 | 0.548 |  |  |  |  |  | 0.412 | 0.516 | 0.409 | 0.468 | 0.371 |  |  |  |  | 
A-427 | 1.11 | 1.05 | 0.945 | 1.15 | 1.06 | 0.785 | 0.794 | 0.794 | 0.696 | 0.733 | 0.871 | 0.789 | 0.826 | 0.743 | 0.724 | 0.222 | 0.222 | 0.219 | 0.196 | 0.181
ABC-1 | 0.956 | 1.22 | 1.08 | 1.13 | 0.807 |  |  |  |  |  | 0.726 | 0.771 | 0.566 | 0.813 | 0.723 | 0.146 | 0.154 | 0.186 | 0.219 | 0.196
BEN | 1.05 | 1.13 | 0.853 | 1.04 | 0.853 | 1.19 | 0.942 | 1.08 | 0.884 | 1.05 | 0.559 | 0.517 | 0.531 | 0.609 | 0.523 | 0.479 | 0.562 | 0.542 | 0.488 | 0.413
CAL-12T | 1.34 | 1.18 | 0.898 | 0.966 | 0.971 | 0.332 | 0.329 | 0.328 | 0.347 | 0.331 | 0.382 | 0.47 | 0.257 | 0.43 | 0.417 | 0.323 | 0.254 | 0.295 | 0.325 | 0.265
COR-L23 | 0.698 | 0.769 | 0.634 | 0.69 | 0.763 | 0.581 | 0.569 | 0.733 | 0.206 | 0.152 | 0.674 | 0.8 | 0.514 | 0.8 | 0.777 | 0.196 | 0.195 | 0.207 | 0.225 | 0.162
COR-L 105 | 1.05 | 1.08 | 0.855 | 0.83 | 0.586 | 0.442 | 0.423 | 0.47 | 0.479 | 0.453 | 0.555 | 0.418 | 0.399 | 0.463 | 0.31 | 0.354 | 0.321 | 0.312 | 0.334 | 0.357
Calu-6 | 0.954 | 1.03 | 0.909 | 0.99 | 0.892 |  |  |  |  |  | 1.05 | 0.947 | 0.934 | 0.902 | 0.865 |  |  |  |  | 
